The experiment concerns PSYLI2 cells. As to the kind of experiment: PsychLight assays (agonist and antagonist mode). The class given is cell-based. Particulars: FIG. 3C-3E; agonist mode concentration-response, antagonist mode 1 μM. As to the method:
PsychLight Assays. Psychlight assays were performed using a previously published method. Briefly, glass bottom 96-well plates were coated with 50 μg/mL of poly-D-lysine overnight at room temperature and then washed with Dulbecco's PBS. PSYLI2 cells were suspended in DMEM containing 10% FBS with 5% penicillin-streptomycin, plated at a density of 40,000 cells/well, and incubated (37° C., 5% CO2) for 24 h prior to each experiment. Immediately before an experiment, stock solutions of drugs in DMSO were diluted 1:100 in imaging media distributed across an empty 96-well plate (treatment plate) following a randomized plate map. The imaging media consisted of 1×HBSS containing […] and […]. […] Data were from 2 plates with 2-3 wells being analyzed per plate. […]
Once imaging was complete, the images were exported, and analyzed using a custom Python script. […] The mask was generated by calculating the average fluorescence intensity for the entire image and using that value as a threshold. […] The % ΔF/F values for each well were calculated using the following equation: […]
Once imaging was complete, the images were exported, and analyzed using a custom Python script. […] The mask was generated by calculating the average fluorescence intensity for the entire image and using that value as a threshold. […]

Regarding `CCN(CC)C(=O)[C@H]1C=C2c3cccc4ccn(c34)C[C@@H]2N(C)C1` [(−)-JRT], the “hallucinogenic potential (psychLight)” value is “low hallucinogenic potential”.

Source of the values: patent US12637464B2, “Tetracyclic compounds for treating brain disorders” (The Regents of the University of California, priority 2021, dated 2026).
